{"source": "patent US20240262844A1", "about": "“PYRIDINIUM SALTS AND METHODS OF USE” (UNIVERSITY OF WYOMING, priority 2023, published 2024)", "key": {"[1]": {"tested_on": "Octreotide acetate (1 kDa)", "assay": "Photochemical labeling of octreotide (LC/MS)", "type": "biochemical", "details": "10 μM octreotide acetate, 100 μM pyridinium salt, 30 minutes", "procedure": "(§1) General Procedure B: Photochemical Irradiation of Peptides and Proteins: To a 2 mL Pyrex LC/MS vial (Thermo model #03-391-39) were sequentially added solutions containing the desired biomolecule, glutathione (GSH), pyridinium salt, and ammonium acetate (NH4OAc). The resulting solution was diluted to a final volume of 500 μL and then sparged using nitrogen for a minimum of 30 minutes prior to irradiation. The actively sparging solution was then placed in an EvoluChem™ PhotoRedOx Box photoreactor that was equipped with a Kessil, PR160 427 nm LED Lamp and was then irradiated (100% lamp intensity) for the designated time at room temperature while maintaining active sparging. The resultant reaction mixture was then analyzed directly by LC/MS. Analysis of labeling outcomes using LC/MS was performed either by extracted ion chromatogram intensities (method A) or by integrating the area under the peaks associated with peptide content (method B). These values were totaled, and estimated percentages were assigned according to relative intensities of peaks or ion counts.\nLabeling of Octreotide with Pyridinium Salt 2a (Octreotide-2a Conjugate). […] The resulting reaction mixture was directly analyzed by LC/MS using method A to have proceeded with 88% conversion with mono labeling. […]"}, "[2]": {"biological_target": "T1, chymotrypsinogen (25 kDa) (Bos taurus, UniProt P00766)", "T1 construct": "α-Chymotrypsinogen A from bovine pancreas; purchased Sigma Aldrich; host or cells: bovine pancreas", "assay": "Photochemical labeling of chymotrypsinogen (LC/MS, MS-MS)", "type": "biochemical, bovine", "details": "digestion/MS-MS", "procedure": "as §1\nLabeling of Chymotrypsinogen with pyridinium salt 2a (Chymotrypsinogen-2a Conjugate). […] The reaction mixture was directly analyzed by LC/MS using method A and was estimated to have proceeded with 90% conversion with a 20.7:8.3:1 mono:di:tri labeled ratio and 4% glutathionylation of all unlabeled and labeled protein content. […]"}}, "note": "Where “and” joins values, the source holds several entries; their conditions need not be identical. Identical values can stand only once. Counter-ions that a name gives are not always drawn.", "data": [{"smiles": "COC(=O)N(C)[n+]1c(C)cc(-c2ccc3cc(OC)ccc3c2)cc1C", "note": "[Pyridinium salt 2a, 1-((methoxycarbonyl)(methyl)amino)-4-(6-methoxynapthalen-2-yl)-2,6-dimethylpyridin-1-ium tetrafluoroborate]", "values": [{"measurement": "conversion", "setting": "[1]; 20 mM NH4OAc pH 6.9, glutathione, 427 nm LED", "value": "88% and 93%"}, {"measurement": "degree of labeling", "setting": "[1]; 427 nm", "value": "mono labeling"}, {"measurement": "detectable locations of labeling", "setting": "[2]", "value": "Trp-215 and Trp-237"}]}]}
